Measured values reported in patent publication US20230087118A1, “IMIDAZO[1,2-a][sequence] DERIVATIVES AND THEIR USE IN THE TREATMENT OF DISEASE” (priority 2019, published 2023).

Assays:
IRAK4 [1] = target: T1, IRAK4 (Homo sapiens, UniProt Q9NWZ3); assay: 2-hour 10 μM ATP Biochemical Assay (MesoScale Detection format; IRAK4 phosphorylation of biotin labeled IRAK1 activation loop peptide); conditions: 0.1 nM IRAK4
T1 sequence (Q9NWZ3 1-460): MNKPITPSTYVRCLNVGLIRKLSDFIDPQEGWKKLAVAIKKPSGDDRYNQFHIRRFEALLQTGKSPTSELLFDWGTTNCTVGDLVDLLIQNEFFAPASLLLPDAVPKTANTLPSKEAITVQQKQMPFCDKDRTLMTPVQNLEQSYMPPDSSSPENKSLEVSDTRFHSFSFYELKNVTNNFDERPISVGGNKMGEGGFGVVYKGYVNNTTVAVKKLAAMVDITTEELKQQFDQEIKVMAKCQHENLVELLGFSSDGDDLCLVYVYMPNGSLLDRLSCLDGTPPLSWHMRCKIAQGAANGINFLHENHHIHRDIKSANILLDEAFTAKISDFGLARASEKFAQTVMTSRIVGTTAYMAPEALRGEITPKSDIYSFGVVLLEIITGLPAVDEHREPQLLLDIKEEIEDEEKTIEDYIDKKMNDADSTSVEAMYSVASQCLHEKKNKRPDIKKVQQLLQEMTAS
Experimental: Compounds of the invention were assessed for their ability to inhibit IRAK4 activity. The inhibitory properties of the compounds of the invention described herein can be evidenced by testing in any one of the following assays.
The 2-hour 10 μM ATP Biochemical Assay employs a MesoScale Detection (MSD) format. The kinase reaction is based on the IRAK4 phosphorylation of a biotin labeled peptide (IRAK1 activation loop sequence 360-389).
The kinase reaction in 30 μl is carried out in wells of a 384 well polypropylene assay plate, with 0.1 nM IRAK4, 1.6 μM of biotinylated peptide substrate and 10 μM ATP in 50 mM Hepes, pH 7.5, 60 mM NaCl, 5 mM MgCl2, 0.25 mM MnCl2, 2 mM DTT, 0.01% BSA, and 1% DMSO (from compound DMSO stocks), for 2 hour at room temperature. The activity is quenched with 11 μl of 70 mM EDTA, pH 8.
To detect the phosphorylated biotinylated peptide substrate, 30 μl of the quenched reaction mixture is added to equivalent wells of a 384 well streptavidin coated MesoScale plate (Meso Scale Discovery #L21SA-1). After a 1 hour incubation of the plate for 1 hour at room temperature with gentle mixing, the plate wells are washed 3 times with 50 mM Tris, pH 7.5, 150 mM NaCl, 0.02% Tween-20.
A 25 μl volume of 1:500 anti-P-Threonine Rabbit polyclonal Antibody plus 1:500 Goat-anti-Rabbit Sulfo Tag Antibody (Meso Scale Discovery R32AB-1) in 50 mM Tris, pH 7.5, 150 mM NaCl, 0.02% Tween-20 plus 2% BSA is then added to each well. After a 1-hour incubation of the plate for 1 hour at room temperature with gentle mixing, the plate wells are washed, 3 times with 50 mM Tris, pH 7.5, 150 mM NaCl, 0.02% Tween-20. A 40 μl volume of 2× MSD Read Buffer (Meso Scale Discovery R92TC-1) is added to each well, and the plate is read immediately in an MSD Plate Reader (Meso Scale Discovery).

IRAK4 [2] = target: T1, IRAK4; assay: biochemical
[3] = IRAK4 Biochemical Assay (1 mM ATP, 2 h) IC50 (μM), 1 mM ATP, 2 h, 100 pM IRAK4

IC50 (IRAK4 [1]) [nM] | IC50 (IRAK4 [2]) [µM] | IC50 (IRAK4 [2]; [3]) [µM] | SMILES
3 | 0.0085 |  | COc1cccc(NC(=O)c2cn3cc(C4CCOCC4)nc3cc2OC)n1 [Example 21]
4 | 0.0174 |  | COc1cc2nc(C3CCOCC3)cn2cc1C(=O)Nc1cccc2c1CCCC2 [Example 118]
13 |  | 0.04 | COc1cc2nc(C3CCOCC3)cn2cc1C(=O)Nc1ccn(C(F)F)n1 [Example 48]
2 | 0.0053 |  | COc1cc2nc(C3CCOCC3)cn2cc1C(=O)Nc1cccc(Cl)c1OC [Example 170]
9 |  | 0.0263 | COc1cccc(NC(=O)c2cn3cc(C4CC(OC)C4)nc3cc2OC)n1 (stereo not shown) [Example 8]
1 | 0.0015 |  | CCOc1cc2nc(C[C@@H]3CCOC3)cn2cc1C(=O)Nc1cccc(C(F)F)n1 [Example 65, N-[6-(difluoromethyl)-2-pyridyl]-7-ethoxy-2-[[(3R)-tetrahydrofuran-3-yl]methyl]imidazo[1,2-a]pyridine-6-carboxamide]
13 | 0.0419 |  | COc1cc2nc(C3CCOCC3)cn2cc1C(=O)Nc1cccc(C(C)(F)F)c1 [Example 145]
2 |  | 0.0032 | COc1cc2nc(C3CCOC(C)(C)C3)cn2cc1C(=O)Nc1cccc(C(F)(F)F)n1 (stereo not shown) [Example 43]
8 | 0.013 |  | COc1cc2nc(C3C4COCC43)cn2cc1C(=O)Nc1cccc(C(F)(F)F)n1 (stereo not shown) [Example 32]
13 | 0.04 |  | COc1cc2nc(C3CCOCC3)cn2cc1C(=O)Nc1cccc2c1CCO2 [Example 107]
14 | 0.0383 |  | COc1cc2nc(C3CCOCC3)cn2cc1C(=O)Nc1cccc(C(F)(F)F)c1C [Example 142]
8 |  | 0.0293 | COc1cccc(NC(=O)c2cn3cc(CC4CCOCC4)nc3cc2OC)n1 [Example 10]
13 |  | 0.0401 | COc1cc2nc(CC3CCOCC3)cn2cc1C(=O)Nc1cccc(C(F)(F)F)n1 [Example 45]
5 |  | 0.0157 | COc1cc2nc(C3CCC(OC)C3)cn2cc1C(=O)Nc1cccc(C(F)(F)F)n1 (stereo not shown) [Example 41]
3 |  | 0.0088 | COc1cc2nc(C3CC4CCC(C3)O4)cn2cc1C(=O)Nc1cccc(C(F)(F)F)n1 (stereo not shown) [Example 44]
5 | 0.018 |  | COc1cccc(NC(=O)c2cn3cc(C4C5COCC54)nc3cc2OC)n1 (stereo not shown) [Example 22]
1 | 0.0016 |  | COc1cc2nc(C3CCOCC3)cn2cc1C(=O)Nc1cccc2c1OCCC2 [Example 162]
1 | 0.0017 |  | CCOc1cc2nc(C[C@H]3CCOC3)cn2cc1C(=O)Nc1cccc(C(F)F)n1 (single isomer, unassigned) [Example 64]
7 | 0.0477 |  | COc1cc2nc(C3CCOCC3)cn2cc1C(=O)Nc1cccc(Cl)c1C [Example 174]
2 |  | 0.0034 | COc1cccc(NC(=O)c2cn3cc(C4CC5(CCOC5)C4)nc3cc2OC)n1 (stereo not shown) [Example 11]
7 | 0.021 |  | COc1cccc(NC(=O)c2cn3cc(CC4CCOC4)nc3cc2OC)n1 (stereo not shown) [Example 24]
5 | 0.0134 |  | CCOc1cc2nc(C(C)(C)C#N)cn2cc1C(=O)Nc1cccc(C(F)F)n1 [Example 74]
12 | 0.0296 |  | COc1cc2nc(C3CCOCC3)cn2cc1C(=O)Nc1cc(F)cc(C(F)F)c1 [Example 169]
14 | 0.0645 |  | COc1cc2nc(C3CCOCC3)cn2cc1C(=O)Nc1cscc1C [Example 135]

IC50 (IRAK4 [1]) [nM] | IC50 (IRAK4 [2]) [µM] | IC50 (IRAK4 [2]; [3]) [µM] | SMILES
9 |  | 0.0242 | COc1cccc(NC(=O)c2cn3cc(C4CC45CCCCO5)nc3cc2OC)n1 (stereo not shown) [Example 9]
4 | 0.0129 |  | COc1cc2nc(C3CCOCC3)cn2cc1C(=O)Nc1cccc(C(F)F)c1 [Example 125]
10 | 0.0417 |  | COc1cc2nc(C3CCOCC3)cn2cc1C(=O)Nc1ccccc1F [Example 147]
4 | 0.0096 |  | COc1cc2nc(C3CCOCC3)cn2cc1C(=O)Nc1cccc(C(F)(F)F)n1 [Example 203]
8 |  | 0.0262 | COc1cc2nc(C3CC(OC)C3)cn2cc1C(=O)Nc1cccc(C(F)(F)F)n1 (stereo not shown) [Example 36]
3 | 0.0092 |  | COc1cc2nc(C3CCOCC3)cn2cc1C(=O)Nc1cccc2c1CCC2 [Example 121]
9 | 0.0311 |  | COc1cc2nc(C3CCOCC3)cn2cc1C(=O)Nc1ccccn1 [Example 146]
5 | 0.014 |  | COc1cc2nc(CC3CCOC3)cn2cc1C(=O)Nc1cccc(C(F)(F)F)n1 (stereo not shown) [Example 33]
8 | 0.0257 |  | COc1cc2nc(C3CCOCC3)cn2cc1C(=O)Nc1cccc(C(F)(F)F)c1 [Example 158]
9 |  | 0.0305 | COc1cc2nc(C3CC34CCOCC4)cn2cc1C(=O)Nc1cccc(C(F)(F)F)n1 (stereo not shown) [Example 40]
15 | 0.0579 |  | COc1cc2nc(C3CCOCC3)cn2cc1C(=O)Nc1cccc(C(F)(F)CF)c1 [Example 122]
9 |  | 0.0253 | COc1cc2nc(C34CC(C#N)(C3)C4)cn2cc1C(=O)Nc1cccc(C(F)(F)F)n1 [Example 37]
7 | 0.0251 |  | COc1cc2nc(C3CCOCC3)cn2cc1C(=O)Nc1cccc(Cl)c1 [Example 144]
2 |  | 0.0048 | COc1cc2nc(C3CC4(CCOC4)C3)cn2cc1C(=O)Nc1cccc(C(F)(F)F)n1 (stereo not shown) [Example 38]
4 | 0.0089 |  | COc1cc2nc(C3CCOCC3)cn2cc1C(=O)Nc1cccc2c1OCC2 [Example 179]
11 | 0.0378 |  | COc1cc2nc(C3CCOCC3)cn2cc1C(=O)Nc1ccccc1OC(C)C [Example 168]
4 | 0.016 |  | COc1cc2nc(C3CCOCC3)cn2cc1C(=O)Nc1cccc(F)c1Cl [Example 173]
1 |  |  | CCOc1cc2nc(C3CCOCC3)cn2cc1C(=O)Nc1cccc(C(F)F)n1 [Example 73]
10 | 0.0354 |  | COc1cc2nc(C3CCOCC3)cn2cc1C(=O)Nc1cccc(C)c1 [Example 143]
147 |  |  | COc1cc2nc(C3CCOCC3)cn2cc1C(=O)Nc1ccns1 [Example 156]
3 |  |  | COc1cccc(NC(=O)c2cn3cc(C45CC(C(F)F)(C4)C5)nc3cc2OC)n1 [Example 20]
688 |  |  | COc1cc2nc(C3CCOCC3)cn2cc1C(=O)Nc1cccc(C2CC2)c1 [Example 163]
8 | 0.0245 |  | COc1cc2nc(C3CCOCC3)cn2cc1C(=O)Nc1cccc(CF)c1 [Example 141]
8 |  |  | COc1cccc(NC(=O)c2cn3cc(C4CC45CCOC5)nc3cc2OC)n1 (stereo not shown) [Example 16]
